{"source": "paper PMC4726189", "about": "“Blocking protein phosphatase 2A signaling prevents endothelial-to-mesenchymal transition and renal fibrosis: a peptide-based drug therapy” (Scientific Reports, 2016)", "key": {"PP2A [1]": {"tested_on": "PP2A", "settings": "cited from earlier work", "text": "(§1) Therefore, blocking PP2Ac Tyr127 nitration is considered a potential therapeutic approach. […] Peptide-based drugs have garnered much attention because of their high potencies of action and relatively few off-target side-effects[52][53]."}, "Caco-2 Cells": {"tested_on": "Caco-2 Cells", "settings": "cited from earlier work", "text": "as §1"}, "occludin": {"tested_on": "occludin", "assay": "Serine/threonine phosphorylation of occludin in immunoprecipitates from TGF-β1-treated HUVECs", "format": "cell-based, human", "settings": "n ≥ 3", "description": "(§2) Human umbilical vein endothelial cells (HUVECs, ATCC) were cultured in RPMI-1640 (Gibco) supplemented with 10% fetal bovine serum (FBS, HyClone). When 30% confluent, cells were cultured in serum-free medium before recombinant human TGF-β1 (10 ng/ml; Peprotech) treatment. In some experiments, cells were pretreated with PP2A inhibitor OA (10 nM; Sigma) for 1 h before the addition of TGF-β1. For all cell stimulations, n ≥ 3 independent experiments were performed.\nCell lysates were centrifuged at 12,000g for 30 min at 4 °C. Approximately 1 mg of each lysate was incubated overnight at 4 °C with 2 μg of anti-occludin, anti-PP2Ac or IgG antibody (a negative control), followed by incubation with Protein A/G-Agarose for 1 hr to capture immunoprecipitates. Bead complexes were washed four times in lysis buffer and then resuspended in 2 × SDS buffer and heated for 10 min at 90 °C. Lysates were electrophoresed, transferred to PVDF filters, and subsequently immunoblotted with antibodies."}, "HUVECs [2]": {"tested_on": "HUVECs", "assay": "TGF-β1-induced EndMT in HUVECs, western blot of VE-cadherin and α-SMA", "format": "cell-based, human", "settings": "n ≥ 3", "description": "as §2\nRenal tissues or cells were harvested and centrifuged at 12,000 g to remove cell debris. Protein concentration was measured using a BCA assay kit (Pierce). Eighty micrograms of protein was subjected to SDS-PAGE and transferred onto polyvinylidene difluoride membranes. After transfer, the membranes were blocked and blotted routinely with antibodies against VE-cadherin (BD Biosciences), α-SMA (Abcam), collagen1 (Abcam), PP2Ac (Cell Signaling Technology), occludin (Invitrogen), P-threonine/P-serine (Santa Cruz), nitrotyrosine (Cayman), acetylated-lysine (Cell Signaling Technology), phosphotyrosine (PY-20,Biolgend), PP2A,C subunit, demethylated (Millipore), vimentin (Boster) and CD31 (Proteintech). The immunolabeled proteins were detected by enhanced chemiluminescence (Pierce).The density of the bands was analyzed by Quantity One software (Bio-Rad)."}, "PP2A [3]": {"tested_on": "PP2A", "settings": "inhibition of PP2A by okadaic acid; cited from earlier work", "text": "The vast majority of biological processes, including renal fibrosis, are regulated by the balance between the activities of kinases and phosphatases. The significance of kinases has been intensively discussed in kidney disease for decades, however, the roles of phosphatases remain poorly understood. Protein phosphatase 2A (PP2A) is a ubiquitously expressed protein serine/threonine phosphatase that accounts for a large fraction of phosphatase activity in eukaryotic cells. As a heterotrimer, PP2A is composed of three subunits: a catalytic C subunit (PP2Ac), a structural A subunit (PP2Aa) ..."}, "HUVECs [4]": {"tested_on": "HUVECs", "assay": "Cellular uptake of FITC-labeled peptide in HUVECs", "format": "cell-based, human", "settings": "fluorescence, n=3", "description": "To further confirm the hypothesis, PP2Ac mimic peptides (Y127WT,Y130WT,Y265WT, Y267WT,Y284WT) were designed to assess the significance of Tyr127 and other Tyr sites on TGF-β1-driven EndMT. To enhance the penetration of synthetic peptides, a cell-permeable peptide transactivator of transcription (TAT) was used[20][21]. The conjugated peptide TAT-Y127WT was labeled with fluorescein isothiocyanate (FITC) and analyzed for cellular uptake. […] Thus, at the dose of 10 μM, we investigated the anti-EndMT effects of TAT-Y127WT compared with the other four peptides.\n(§3) Figure S2. The penetration and cytotoxicity of TAT-Y127WT to HUVECs.\n(§4) HUVECs were incubated with various concentrations (0,1,5,10,20,or 50μM) of TAT-Y127WT. Cytotoxicity was measured with the CCK-8 assay. (c)\n(§5) Immunofluorescence distribution of TAT-Y127WT and cell morphology. Nuclei were counterstained with DAPI (blue). n=3. Scale bars, 20μm.\n(§6) Supplementary Methods: Mass Spectrometry Experiments\nProtein Digestion-The protein bands were digested according to an in-gel digestion procedure. The gels were dried in a vacuum centrifuge. Briefly, the in-gel proteins were reduced with dithiothreitol (10 mM DTT/100 mM NH4HCO3 ) for 30 min at 56°C, then alkylated with iodoacetamide (200 mM IAA/100 mM NH4HCO3) in the dark at room temperature for 30 minutes. Gel pieces were briefly rinsed with 100 mM NH4HCO3 and ACN. […]"}, "[5]": {"assay": "Whole-body and ex vivo organ fluorescence imaging of FITC-labeled peptide in mice", "set-up": "species or system C57/B mice", "description": "FITC-loaded peptides were injected through the tail vein or intraperitoneally administered into C57/B mice at a dose of 5 nmol/g of body weight. Whole body fluorescence imaging was performed using an in vivo imaging system (IVIS Spectrum, Caliper, USA) at 0, 0.5, 4 or 24 h post-injection. Subsequently, the mice were sacrificed, and their organs such as the liver, spleen, kidneys, heart, and lung were excised and subjected to ex vivo fluorescence imaging. At the same time, 1 mL of blood was drawn from the retro-orbital sinus after injection at different time points."}, "HUVECs [6]": {"tested_on": "HUVECs", "assay": "Cytotoxicity to HUVECs, CCK-8 assay", "format": "cell-based, human", "settings": "approximately 5–10 μM (0, 1, 5, 10, 20 or 50 μM tested), n=3", "description": "as §3, §4, §5, §6\nProtein Digestion-The protein bands were digested according to an in-gel digestion procedure. The gels were dried in a vacuum centrifuge. Briefly, the in-gel proteins were reduced with dithiothreitol (10 mM DTT/100 mM NH4HCO3 ) for 30 min at 56°C, then alkylated with iodoacetamide (200 mM IAA/100 mM NH4HCO3) in the dark at room temperature for 30 minutes. Gel pieces were briefly rinsed with 100 mM NH4HCO3 and ACN. Gel pieces were digested overnight in 12.5 ng/μl trypsin in 25 mM NH4HCO3. The peptides were extracted three times with 60% ACN/0.1% TFA.\nThe extracts were pooled and dried completely by a vacuum centrifuge.\nIdentification of the Modification Sites-Experiments were performed on a Q Exactive mass spectrometer that was coupled to Easy nLC (Proxeon Biosystems, now Thermo Fisher Scientific). Approximately 3 μl of the sample was injected for nanoLC-MS/MS analysis. The peptide mixture (1 μg) was loaded onto the C18-reversed phase column\n(1 picture or pasted object on this page, not shown here)"}, "[7]": {"settings": "OA 10 nM for 1 h before TGF-β1 10 ng/ml"}, "[8]": {"settings": "FITC-labeled peptide, tail vein injection, ex vivo organ imaging at different time points"}}, "data": [{"compound": "TPDYFL", "values": [{"measurement": "PP2A translocation in cardiac myocytes", "setting": "PP2A [1]", "value": "attenuate"}, {"measurement": "acetaldehyde-induced tight junction disruption and barrier dysfunction", "setting": "Caco-2 Cells", "value": "prevented"}]}, {"compound": "C=C1[C@@H](O)[C@@H]2O[C@]3(CC[C@H](/C=C/[C@@H](C)[C@@H]4CC(C)=C[C@@]5(O[C@H](C[C@@](C)(O)C(=O)O)CC[C@H]5O)O4)O3)CC[C@H]2O[C@@H]1[C@@H](O)C[C@H](C)[C@H]1O[C@@]2(CCCCO2)CC[C@H]1C", "note": "[OA, okadaic acid, reference compound]", "values": [{"measurement": "TGF-β1-induced decrease of phosphorylated serine and threonine residues in occludin immunoprecipitates", "setting": "occludin; pretreatment with OA 10 nM for 1 h", "value": "significantly dampened"}, {"measurement": "VE-cadherin expression", "setting": "HUVECs [2]; [7]", "value": "maintained"}, {"measurement": "α-SMA expression induced by TGF-β1", "setting": "HUVECs [2]; [7]", "value": "markedly attenuated"}, {"measurement": "effect of PP2A on thrombin- or nocodazole-induced changes in EC cytoskeleton", "setting": "PP2A [3]", "value": "abolished"}]}, {"compound": "ITQVYGFYD [TAT-Y127WT, mimic peptide derived from PP2Ac conjugating a cell penetrating peptide (CPP: TAT)]", "values": [{"measurement": "serine and threonine phosphorylation of occludin", "setting": "occludin; TGF-β1, 72 h, compared with TAT-Y127Scr treatment", "value": "significantly increased"}, {"measurement": "cell transduction", "setting": "HUVECs [4]; 10 μM", "value": "effectively transduces cells"}, {"measurement": "cell penetration", "setting": "HUVECs [4]; FITC-labeled peptide, approximately 5–10 μM", "value": "efficient cell penetration"}, {"measurement": "density of peritubular capillaries", "setting": "UUO mice; 5 nmol/g per day, CD31+ PTC numbers per visual field, n = 8", "value": "preserved density"}, {"measurement": "number of CD31+/α-SMA+ areas in the interstitium (EndMT level)", "setting": "UUO mice; 5 nmol/g per day, confocal microscopy, n = 8", "value": "dramatically decreased"}, {"measurement": "excessive extracellular matrix (ECM) production, α-SMA and vimentin deposition", "setting": "UUO mice; 5 nmol/g per day, immunohistochemical staining, n = 8", "value": "attenuated"}, {"measurement": "PP2Ac nitration", "setting": "UUO mice; administration of the peptide", "value": "significantly reduces"}, {"measurement": "time to disappearance of the fluorescence signal after injection", "setting": "[5]; FITC-labeled peptide 5 nmol/g intravenously, whole-body imaging at 0, 0.5, 4, 24 h and blood samples (n = 6)", "value": "≤ 24", "unit": "h"}, {"measurement": "fluorescence in heart and lung", "setting": "[5]; [8]", "value": "small signal"}, {"measurement": "fluorescence in kidney and liver", "setting": "[5]; [8]", "value": "strongly detected"}, {"measurement": "fluorescence in spleen", "setting": "[5]; [8]", "value": "no signal"}, {"measurement": "potency to inhibit TGF-β1-induced VE-cadherin decrease and α-SMA increase", "setting": "HUVECs [2]; peptide 10 μM, TGF-β1, 72 h, compared with the other four peptides", "value": "higher potency"}, {"measurement": "increase of α-SMA", "setting": "HUVECs [2]; pretreatment with peptide, TGF-β1, 72 h", "value": "inhibited"}, {"measurement": "cytotoxicity to HUVECs", "setting": "HUVECs [6]", "value": "low cytotoxicity"}]}]}
